Several values for one entry are separate records, joined by “and”; a condition that tells them apart may be missing. Equal values may be shown once.
How the values were obtained:
Format in all cases: cell-based, human
LNCaP-CDK7-D97N cells = assay: Growth assay (SRB), LNCaP CDK7-D97N knock-in; conditions: LNCaP CDK7 D99N
Procedure: (§1) To determine the IC50 of drug treatments on growth, cells were seeded in 96-well culture plates. Two days after seeding, the cells were treated with increasing concentrations of drugs and incubated for 4 days. Cell number was determined using the SRB assay (Skehan et al, [1990]), and IC50 values were calculated using non-linear regression curve fitting in GraphPad Prism v10. For all other growth experiments, cells were seeded into 96-well plates, and appropriate drugs were added 2 days after seeding. Cells were then incubated in an IncuCyte Zoom live-cell imager, with cell confluency measured every 6 h. Cell doubling times were determined by non-linear curve fitting (exponential growth equation) in GraphPad Prism v10.
Alt-R^TM S.p. Cas9 nuclease V3, Alt-R CRISPR-Cas9 crRNA, TracrRNA and the donor templates were obtained from Integrated DNA Technologies. […] Cells were treated with 0.7 µM of Alt-R HDR Enhancer V2 to improve HRD efficiency. Sequences of the CRISPRs in the crRNA and the donor templates are shown in the Reagents and tools table. Donor templates were designed to include non-coding substitutions to aid genome DNA PCR for identifying knock-in events and to facilitate cloning; these substitutions are noted in the Reagents and tools table.

22Rv1-SamR cells = assay: IncuCyte confluency growth, 22Rv1-SamR; conditions: 22Rv1-SamR; for % Confluency: 1.25µM Samuraciclib
Procedure: as §1

22Rv1 cells = assay: IncuCyte confluency growth, 22Rv1; conditions: 1.25µM Samuraciclib
Procedure: as §1

[1] = system: 22Rv1 homozygous CDK7-D97N CL3 cells; assay: IncuCyte confluency growth, 22Rv1 homozygous CDK7-D97N CL3; conditions: for % Confluency: 1.25µM Samuraciclib
Procedure: as §1

In the case of `CC(C)c1cnn2c(NCc3ccccc3-n3cccn3)nc(OC3CCCNC3)nc12` (stereo not shown) [LDC4297], the “% Growth” value (LNCaP-CDK7-D97N cells; Log10 Conc. (nM) 0.09) is reported as 106.48% and 87.66%, the “% Growth” value (LNCaP-CDK7-D97N cells; Log10 Conc. (nM) 0.69) is reported as 87.77% and 86.95% and the “% Growth” value (LNCaP-CDK7-D97N cells; Log10 Conc. (nM) 1.29) is reported as 78.55% and 76.66%. The “% Growth” value (LNCaP-CDK7-D97N cells; Log10 Conc. (nM) 1.89) was 68.25% and 64.95%, the “% Growth” value (LNCaP-CDK7-D97N cells; Log10 Conc. (nM) 2.49) was 52.79% and 47.15% and the “% Growth” value (LNCaP-CDK7-D97N cells; Log10 Conc. (nM) 3.10) was 25.80% and 16.35%. The “% Growth” value (LNCaP-CDK7-D97N cells; Log10 Conc. (nM) 3.70) was 4.77% and -4.61%, the “% Growth” value (LNCaP-CDK7-D97N cells; Log10 Conc. (nM) 4.30) was -8.16% and -14.41% and the “% Growth” value (LNCaP-CDK7-D97N cells; Log10 Conc. (nM) -0.52) was 106.84% and 93.83%.
With `CC1(C)CC[C@H](Nc2ncc(C(F)(F)F)c(-c3c[nH]c4c(P(C)(C)=O)c(C#N)ccc34)n2)CN1` [SY-5609] the “% Growth” value (LNCaP-CDK7-D97N cells; Log10 Conc. (nM) 0.09) was 71.79% and 87.29%, the “% Growth” value (LNCaP-CDK7-D97N cells; Log10 Conc. (nM) 0.69) was 65.81% and 72.30% and the “% Growth” value (LNCaP-CDK7-D97N cells; Log10 Conc. (nM) 1.29) was 57.80% and 49.26%. The “% Growth” value (LNCaP-CDK7-D97N cells; Log10 Conc. (nM) 1.89) was 79.76% and 63.91%, the “% Growth” value (LNCaP-CDK7-D97N cells; Log10 Conc. (nM) 2.49) was 52.42% and 54.28% and the “% Growth” value (LNCaP-CDK7-D97N cells; Log10 Conc. (nM) 3.10) was 25.04% and 27.42%. The “% Growth” value (LNCaP-CDK7-D97N cells; Log10 Conc. (nM) 3.70) was 4.80% and 4.93%, the “% Growth” value (LNCaP-CDK7-D97N cells; Log10 Conc. (nM) -0.52) was 89.79% and 90.32% and the “% Growth” value (LNCaP-CDK7-D97N cells; Log10 Conc. (nM) -1.12) was 105.31% and 92.26%.
With `CC(C)c1cnn2c(NCc3ccccc3)cc(NC[C@H]3CCNC[C@@H]3O)nc12` [Samuraciclib] the “% Confluency” value (22Rv1-SamR cells; 0 hours) was 9.95% and 14.33% and 14.57%, the “% Confluency” value (22Rv1-SamR cells; 6 hours) was 10.40% and 16.13% and 16.29% and the “% Confluency” value (22Rv1-SamR cells; 12 hours) was 11.65% and 17.66% and 17.87%. For the same compound, the “% Confluency” value (22Rv1-SamR cells; 18 hours) was 12.68% and 19.79% and 20.05%, the “% Confluency” value (22Rv1-SamR cells; 24 hours) was 14.19% and 22.35% and 22.55% and the “% Confluency” value (22Rv1-SamR cells; 30 hours) was 15.61% and 24.60% and 24.68%. For the same compound, the “% Confluency” value (22Rv1-SamR cells; 36 hours) was 16.94% and 26.20% and 26.26%, the “% Confluency” value (22Rv1-SamR cells; 42 hours) was 17.81% and 27.46% and 27.71% and the “% Confluency” value (22Rv1-SamR cells; 48 hours) was 18.38% and 28.92% and 29.43%. For the same compound, the “% Confluency” value (22Rv1-SamR cells; 54 hours) was 19.67% and 30.91% and 31.32%, the “% Confluency” value (22Rv1-SamR cells; 60 hours) was 20.82% and 32.87% and 33.32% and the “% Confluency” value (22Rv1-SamR cells; 66 hours) was 22.29% and 34.64% and 35.33%. For the same compound, the “% Confluency” value (22Rv1-SamR cells; 72 hours) was 23.74% and 36.43% and 37.12%, the “% Confluency” value (22Rv1-SamR cells; 78 hours) was 25.50% and 38.39% and 39.15% and the “% Confluency” value (22Rv1-SamR cells; 84 hours) was 27.27% and 40.40% and 41.13%. For the same compound, the “% Confluency” value (22Rv1-SamR cells; 90 hours) was 29.10% and 42.68% and 43.52%, the “% Confluency” value (22Rv1-SamR cells; 96 hours) was 31.07% and 45.25% and 45.93% and the “% Confluency” value (22Rv1-SamR cells; 114 hours) was 38.05% and 53.22% and 54.00%. The “% Confluency” value (22Rv1-SamR cells; 120 hours) was 40.50% and 56.05% and 56.55%, the “% Confluency” value (22Rv1-SamR cells; 126 hours) was 43.34% and 58.82% and 59.09% and the “% Confluency” value (22Rv1-SamR cells; 132 hours) was 46.08% and 61.31% and 61.57%. The “% Confluency” value (22Rv1-SamR cells; 138 hours) was 48.67% and 63.52% and 63.85%, the “% Confluency” value (22Rv1-SamR cells; 144 hours) was 51.40% and 65.10% and 65.55% and the “Growth inhibition over time” value (22Rv1-SamR cells; IncuCyte confluency, samuraciclib at 1.35 µM) was “considerably less growth inhibited”. For the same compound, the “% Confluency” value (22Rv1 cells; 22Rv1, 0 hours) was 11.09% and 19.39% and 18.69%, the “% Confluency” value (22Rv1 cells; 22Rv1, 6 hours) was 11.39% and 20.88% and 20.07% and the “% Confluency” value (22Rv1 cells; 22Rv1, 12 hours) was 11.53% and 22.21% and 21.45%. For the same compound, the “% Confluency” value (22Rv1 cells; 22Rv1, 18 hours) was 12.38% and 23.96% and 23.27%, the “% Confluency” value (22Rv1 cells; 22Rv1, 24 hours) was 12.59% and 24.76% and 24.14% and the “% Confluency” value (22Rv1 cells; 22Rv1, 72 hours) was 18.17% and 36.04% and 35.50%. The “% Confluency” value (22Rv1 cells; 22Rv1, 78 hours) was 18.89% and 36.95% and 36.29%, the “% Confluency” value (22Rv1 cells; 22Rv1, 84 hours) was 19.31% and 37.65% and 37.05% and the “% Confluency” value (22Rv1 cells; 22Rv1, 90 hours) was 19.76% and 38.15% and 37.44%. The “% Confluency” value (22Rv1 cells; 22Rv1, 96 hours) was 20.21% and 38.65% and 37.90%, the “% Confluency” value (22Rv1 cells; 22Rv1, 114 hours) was 21.28% and 39.48% and 38.59% and the “% Confluency” value (22Rv1 cells; 22Rv1, 120 hours) was 21.53% and 39.86% and 38.66%. The “% Confluency” value (22Rv1 cells; 22Rv1, 126 hours) was 21.77% and 39.89% and 38.66%, the “% Confluency” value (22Rv1 cells; 22Rv1, 132 hours) was 21.94% and 40.00% and 38.90% and the “% Confluency” value (22Rv1 cells; 22Rv1, 138 hours) was 22.18% and 40.24% and 38.99%. The “% Confluency” value (22Rv1 cells; 22Rv1, 144 hours) was 22.26% and 40.34% and 39.26%, the “% Confluency” value ([1]; CDK7D97N CL3, 0 hours) was 11.15% and 16.69% and 15.87% and the “% Confluency” value ([1]; CDK7D97N CL3, 6 hours) was 12.67% and 19.64% and 18.89%. The “% Confluency” value ([1]; CDK7D97N CL3, 12 hours) was 14.00% and 21.38% and 20.49%, the “% Confluency” value ([1]; CDK7D97N CL3, 18 hours) was 14.90% and 23.74% and 22.71% and the “% Confluency” value ([1]; CDK7D97N CL3, 24 hours) was 16.23% and 26.69% and 25.53%. The “% Confluency” value ([1]; CDK7D97N CL3, 30 hours) was 17.78% and 29.17% and 27.88%, the “% Confluency” value ([1]; CDK7D97N CL3, 36 hours) was 18.86% and 30.89% and 29.55% and the “% Confluency” value ([1]; CDK7D97N CL3, 42 hours) was 19.43% and 32.04% and 30.87%. For the same compound, the “% Confluency” value ([1]; CDK7D97N CL3, 48 hours) was 20.15% and 33.30% and 32.45%, the “% Confluency” value ([1]; CDK7D97N CL3, 54 hours) was 21.35% and 35.23% and 34.41% and the “% Confluency” value ([1]; CDK7D97N CL3, 60 hours) was 22.64% and 37.22% and 36.36%. The “% Confluency” value ([1]; CDK7D97N CL3, 66 hours) was 23.89% and 39.05% and 38.37%, the “% Confluency” value ([1]; CDK7D97N CL3, 72 hours) was 25.25% and 40.82% and 40.29% and the “% Confluency” value ([1]; CDK7D97N CL3, 78 hours) was 26.70% and 42.56% and 42.42%. For the same compound, the “% Confluency” value ([1]; CDK7D97N CL3, 84 hours) was 28.04% and 44.37% and 44.58%, the “% Confluency” value ([1]; CDK7D97N CL3, 90 hours) was 29.44% and 46.55% and the “% Confluency” value ([1]; CDK7D97N CL3, 96 hours) was 30.80% and 48.80% and 48.76%. For the same compound, the “% Confluency” value ([1]; CDK7D97N CL3, 114 hours) was 35.00% and 54.89% and 54.85%, the “% Confluency” value ([1]; CDK7D97N CL3, 120 hours) was 36.47% and 56.68% and the “% Confluency” value ([1]; CDK7D97N CL3, 126 hours) was 38.04% and 58.51% and 58.53%. The “% Confluency” value ([1]; CDK7D97N CL3, 132 hours) was 39.56% and 60.46% and 60.48%, the “% Confluency” value ([1]; CDK7D97N CL3, 138 hours) was 41.00% and 62.13% and 62.12% and the “% Confluency” value ([1]; CDK7D97N CL3, 144 hours) was 42.51% and 63.49% and 63.85%. The “Growth inhibition over time” value ([1]; 22Rv1 homozygous CDK7-D97N clone, IncuCyte confluency, samuraciclib at 1.35 µM) was “considerably less growth inhibited”, the “% Growth” value (LNCaP-CDK7-D97N cells; Log10 Conc. (nM) 0.09) was 94.94% and 114.20% and the “% Growth” value (LNCaP-CDK7-D97N cells; Log10 Conc. (nM) 0.69) was 96.54% and 100.62%. The “% Growth” value (LNCaP-CDK7-D97N cells; Log10 Conc. (nM) 1.29) was 87.80% and 88.90%, the “% Growth” value (LNCaP-CDK7-D97N cells; Log10 Conc. (nM) 1.89) was 88.49% and 86.66% and the “% Growth” value (LNCaP-CDK7-D97N cells; Log10 Conc. (nM) 2.49) was 79.14% and 95.81%. For the same compound, the “% Growth” value (LNCaP-CDK7-D97N cells; Log10 Conc. (nM) 3.10) was 43.80% and 31.52%, the “% Growth” value (LNCaP-CDK7-D97N cells; Log10 Conc. (nM) 3.70) was -6.17% and -13.23% and the “% Growth” value (LNCaP-CDK7-D97N cells; Log10 Conc. (nM) 4.30) was -9.58% and -16.90%. For the same compound, the “% Growth” value (LNCaP-CDK7-D97N cells; Log10 Conc. (nM) -0.52) was 101.23% and 96.47%.

Reference: paper PMC12528448, “Resistance to CDK7 inhibitors directed by acquired mutation of a conserved residue in cancer cells” (The EMBO Journal, 2025)
